Assay [1] has as its target T1, NPR-32 (Caenorhabditis elegans, UniProt O62403).
T1 sequence (O62403 1-440): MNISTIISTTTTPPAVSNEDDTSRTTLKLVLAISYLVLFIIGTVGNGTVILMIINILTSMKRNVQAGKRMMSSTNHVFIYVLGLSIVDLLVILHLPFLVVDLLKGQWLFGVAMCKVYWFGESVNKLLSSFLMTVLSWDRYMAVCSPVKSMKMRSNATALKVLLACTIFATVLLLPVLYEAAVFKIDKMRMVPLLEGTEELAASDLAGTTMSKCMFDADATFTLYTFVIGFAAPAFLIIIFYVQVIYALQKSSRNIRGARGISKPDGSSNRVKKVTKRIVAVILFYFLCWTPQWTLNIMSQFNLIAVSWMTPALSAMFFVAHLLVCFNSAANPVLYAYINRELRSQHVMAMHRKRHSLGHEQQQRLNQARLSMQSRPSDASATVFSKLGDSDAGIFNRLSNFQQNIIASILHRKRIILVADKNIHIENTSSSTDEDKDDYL
Kind of assay: Saturation binding of [3H]CP55,940 to NPR-32 receptors. Set-up: species or system C. elegans. The conditions noted are these: saturation binding curve, worm membranes, read-out: apparent Kd. The protocol: (§1) Briefly, 75 μg of crude membrane preparations were resuspended in 300 μL of assay buffer (50 mM Tris-HCl, 2.5 mM EDTA, 5 mM MgCl2, 0.5% BSA, pH 7.5) in silanized glass tubes and preincubated with 5 µM JZL-195 for 30 min at 30 °C. […] CP55,940 for 75 min at 30 °C. After the incubation time, membrane suspensions were rapidly filtered through a 0.1% polyethyleneimine presoaked 96-well microplate bonded with GF/B glass fiber filters (UniFilter-96 GF/B, PerkinElmer Life Sciences) under vacuum and washed 12 times with 120 µL of washing buffer (50 mM Tris-HCl, 2.5 mM EDTA, 5 mM MgCl2, 0.5% BSA, pH 7.5). Filters were added with 50 µL of MicroScint20 scintillation liquid, and radioactivity was measured with the 1450 MicroBeta Trilux top counter (PerkinElmer Life Sciences). The results were analyzed with GraphPad Prism 5® and expressed as % of [^3H]CP55,940 binding. IC50 values of each compound were estimated from fitted nonlinear curves and were used to calculate the Ki values by applying the Cheng-Prusoff equation. Specific binding was determined using the npr-32(ok2541) mutant strain in which saturation binding was abolished. Importantly, normalizing against the NPR-19 null mutant strain- npr-19(ok2068), no saturation binding curve could be achieved.
However, no binding or other direct interactions between AEA and these GPCRs were reported. […]

For assay [2], the system named is NPR-19. Kind of assay: [3H]CP55,940 binding normalized against NPR-19 null mutant npr-19(ok2068). Set-up: species or system C. elegans. The conditions noted are these: no saturation binding curve (data not shown). How it is done: as §1

Turning to `CCCCCCC(C)(C)c1ccc([C@@H]2C[C@H](O)CC[C@H]2CCCO)c(O)c1` [CP55,940], the Kd in assay [1] worked out at 2.5 ± 1.8 nM. In addition, the “binding to NPR-19” value in assay [2] was “did not bind”.

Values taken from article PMC7564282, “Juniperonic Acid Biosynthesis is Essential in Caenorhabditis elegans Lacking Δ6 Desaturase (fat-3) and Generates New ω-3 Endocannabinoids” (Cells, 2020).
